Assay results reported in PMC11126104 (Toxins, 2024).

What was measured:
[1] = pH 7
[2] = system: Caco-2/HT-29MTX monolayers
in vitro = details: human
[3] = rat, in vivo; cited from earlier work
[4] = cited from earlier work

| Compound | intestinal bioaccessibility, range of values [1] | FA (%) absorption category [2] | toxicity / cell viability (MTT) (Caco-2/HT-29MTX cells) | Papp (in vitro) | absorption within the intestinal tract [3] | log Po/w [4] |
| --- | --- | --- | --- | --- | --- | --- |
| CC(C)[C@H]1C(=O)O[C@H](C(C)C)C(=O)N(C)[C@@H](C(C)C)C(=O)O[C@H](C(C)C)C(=O)N(C)[C@@H](C(C)C)C(=O)O[C@H](C(C)C)C(=O)N1C [ENNB, enniatin B] | 0.6-98.2% | High | not affecting cell viability | 91.6 ×10⁻⁶ cm/s |  |  |
| COc1cc2c(c3oc4cccc(O)c4c(=O)c13)[C@@H]1C=CO[C@@H]1O2 [STG, sterigmatocystin] | 1.5-59.3% | High | not affecting cell viability |  |  |  |
| aflatoxin B1 [AFB1] |  |  | not affecting cell viability |  | nearly total absorption | 2.09 |
